≈ marks a conversion by molar mass, not a printed value. Calls of active or inactive are those of the source. The calls are words filed in the database; no cut-off is given here.
Columns and labels:
[1] = Clearance in plasma of NOD-SCID mouse model xenografted with human PC-3 cells at 25 mg/kg, IG measured upto 48 hrs by LC-MS/MS analysis; type: ADME, organism-based; settings: po
MGC-803 [2] = assay: Induction of cell cycle arrest in human MGC-803 cells assessed as accumulation of cells at G2 phase at 10 uM incubated for 48 hrs by flow cytometry (reference value: 21.35 %); type: functional
MGC-803 [3] = assay: Induction of apoptosis in human MGC-803 cells assessed as late apoptotic cells at 2.5 uM incubated for 48 hrs by annexin V-FITC/PI staining based flow cytometry (reference value: 0.95 %); type: functional
MGC-803 [4] = assay: Antitumor activity against human MGC-803 cells xenografted in NOD-SCID mouse model assessed as downregulation of ki67 level at 10 to 50 mg/kg, IG administered once every 2 days for 21 days by Western blot analysis; type: functional, organism-based; settings: dose 10-50 mg/kg, time 21.0 day
[5] = Metabolic stability in rat liver S9 fraction assessed as half life at 20 umol/L preincubated for 5 mins followed by NADPH addition measured upto 60 mins by LC-MS/MS analysis; type: ADME, subcellular; settings: dose 20 µmol/L, time < 65 min
[6] = AUClast in tumor of NOD-SCID mouse model xenografted with human PC-3 cells at 25 mg/kg, IG measured upto 48 hrs by LC-MS/MS analysis; type: ADME, organism-based, Neoplasm; settings: in vivo, po
MGC-803 [7] = assay: Induction of apoptosis in human MGC-803 cells assessed as viable cells at 2.5 uM incubated for 48 hrs by annexin V-FITC/PI staining based flow cytometry (reference value: 98 %); type: functional; settings: read-out: Activity
[8] = Apparent volume of distribution in plasma of NOD-SCID mouse model xenografted with human PC-3 cells at 25 mg/kg, IG measured upto 48 hrs by LC-MS/MS analysis; type: ADME, organism-based; settings: in vivo, po
PC-3 [9] = assay: Induction of cell cycle arrest in human PC-3 cells assessed as accumulation of cells at S phase at 10 uM incubated for 12 hrs by flow cytometry (reference value: 19.7 %); type: functional
[10] = Cmax in plasma of NOD-SCID mouse model xenografted with human PC-3 cells at 25 mg/kg, IG measured upto 48 hrs by LC-MS/MS analysis; type: ADME, organism-based; design: time < 48 hrs, dose 25 mg/kg, route ig; settings: po
PC-3 [11] = assay: Antitumor activity against human PC-3 cells xenografted in NOD-SCID mouse model assessed as downregulation of Skp2 expression at 10 to 50 mg/kg, IG administered once every 2 days for 21 days by Western blot analysis; type: functional, organism-based; settings: dose 10-50 mg/kg, time 21.0 day
MGC-803 [12] = assay: Induction of apoptosis in human MGC-803 cells assessed as cell shrinkage incubated for 48 hrs; type: functional, cell-based; settings: dose <= 10.0 µM
PC-3 [13] = assay: Induction of apoptosis in human PC-3 cells assessed as necrotic cells at 10 uM incubated for 48 hrs by annexin V-FITC/PI staining based flow cytometry (reference value: 0.14 %); type: functional
[14] = AUClast in plasma of NOD-SCID mouse model xenografted with human PC-3 cells at 25 mg/kg, IG measured upto 48 hrs by LC-MS/MS analysis; type: ADME, organism-based; design: dose 25 mg/kg, time < 48 hrs, route ig; settings: po
MGC-803 [15] = assay: Induction of cell cycle arrest in human MGC-803 cells assessed as accumulation of cells at G1 phase at 10 uM incubated for 48 hrs by flow cytometry (reference value: 54.46 %); type: functional
A549 = assay: Antitumor activity against human A549 cells with low Skp2 expression assessed as cell growth inhibition incubated for 72 hrs by MTT assay; type: functional, cell-based; settings: A549, 72 h
MGC-803 [16] = assay: Induction of cell cycle arrest in human MGC-803 cells assessed as accumulation of cells at G2 phase at 10 uM incubated for 24 hrs by flow cytometry (reference value: 20.64 %); type: functional
[17] = Toxicity in NOD-SCID mouse model xenografted with human PC-3 cells assessed as drug tolerance at 10 to 50 mg/kg, IG administered once every 2 days for 21 days; type: organism-based; settings: in vivo, po, 504 h, dose 10-50 mg/kg, time 21 day
PC-3 [18] = assay: Induction of cell cycle arrest in human PC-3 cells assessed as accumulation of cells at G2 phase at 10 uM incubated for 24 hrs by flow cytometry (reference value: 19.34 %); type: functional
MGC-803 [19] = assay: Induction of apoptosis in human MGC-803 cells assessed as late apoptotic cells at 5 uM incubated for 48 hrs by annexin V-FITC/PI staining based flow cytometry (reference value: 0.95 %); type: functional
MGC-803 [20] = assay: Induction of cell cycle arrest in human MGC-803 cells assessed as accumulation of cells at G1 phase at 10 uM incubated for 12 hrs by flow cytometry (reference value: 57.09 %); type: functional
PC-3 [21] = assay: Induction of apoptosis in human PC-3 cells assessed as late apoptotic cells at 10 uM incubated for 48 hrs by annexin V-FITC/PI staining based flow cytometry (reference value: 0.45 %); type: functional
[22] = Solubility in cell culture medium by HPLC analysis; type: physicochemical
[23] = molecular target: S-phase kinase-associated protein 2 (Homo sapiens, UniProt Q13309); assay: Inhibition of Skp2 in human PC-3 cells treated with shRNA 5'-GGACCTATCGAACTCAGTTAT-3' incubated upto 48 hrs by Western blot analysis (reference value: 4.8 +/- 0.5 microM); type: cell-based
MGC-803 [24] = assay: Induction of cell cycle arrest in human MGC-803 cells assessed as accumulation of cells at G2 phase at 5 uM incubated for 48 hrs by flow cytometry (reference value: 21.35 %); type: functional
PC-3 [25] = assay: Induction of cell cycle arrest in human PC-3 cells assessed as accumulation of cells at G1 phase at 5 uM incubated for 48 hrs by flow cytometry (reference value: 57.39 %); type: functional
PC-3 [26] = assay: Induction of cell cycle arrest in human PC-3 cells assessed as accumulation of cells at G2 phase at 10 uM incubated for 48 hrs by flow cytometry (reference value: 22.59 %); type: functional
PC-3 [27] = assay: Induction of cell cycle arrest in human PC-3 cells assessed as accumulation of cells at G1 phase at 10 uM incubated for 24 hrs by flow cytometry (reference value: 56.81 %); type: functional
PC-3 [28] = assay: Induction of apoptosis in human PC-3 cells assessed as early apoptotic cells at 5 uM incubated for 48 hrs by annexin V-FITC/PI staining based flow cytometry (reference value: 0.85 %); type: functional
[29] = AUC (infinity) in tumor of NOD-SCID mouse model xenografted with human PC-3 cells at 25 mg/kg, IG measured upto 48 hrs by LC-MS/MS analysis; type: ADME, organism-based, Neoplasm; design: dose 25 mg/kg, time < 48 hrs, route ig; settings: in vivo, po
MGC-803 [30] = assay: Antitumor activity against human MGC-803 cells xenografted in NOD-SCID mouse model assessed as tumor growth inhibition at 10 to 50 mg/kg, IG administered once every 2 days for 21 days; type: functional, organism-based; settings: dose 10-50 mg/kg, time 21.0 day
[31] = Metabolic stability in human liver S9 fraction assessed as half life at 20 umol/L preincubated for 5 mins followed by NADPH addition measured upto 60 mins by LC-MS/MS analysis; type: ADME, subcellular; settings: dose 20 µmol/L, time < 65 min
PC-3 [32] = assay: Induction of cell cycle arrest in human PC-3 cells assessed as accumulation of cells at G1 phase at 10 uM incubated for 6 hrs by flow cytometry (reference value: 56.81 %); type: functional
PC-3 [33] = assay: Antitumor activity against human PC-3 cells assessed as cell growth inhibition incubated for 72 hrs by MTT assay; type: functional, cell-based; settings: PC-3, 72 h

S-phase kinase-associated protein 2, sequence (Q13309 whole entry): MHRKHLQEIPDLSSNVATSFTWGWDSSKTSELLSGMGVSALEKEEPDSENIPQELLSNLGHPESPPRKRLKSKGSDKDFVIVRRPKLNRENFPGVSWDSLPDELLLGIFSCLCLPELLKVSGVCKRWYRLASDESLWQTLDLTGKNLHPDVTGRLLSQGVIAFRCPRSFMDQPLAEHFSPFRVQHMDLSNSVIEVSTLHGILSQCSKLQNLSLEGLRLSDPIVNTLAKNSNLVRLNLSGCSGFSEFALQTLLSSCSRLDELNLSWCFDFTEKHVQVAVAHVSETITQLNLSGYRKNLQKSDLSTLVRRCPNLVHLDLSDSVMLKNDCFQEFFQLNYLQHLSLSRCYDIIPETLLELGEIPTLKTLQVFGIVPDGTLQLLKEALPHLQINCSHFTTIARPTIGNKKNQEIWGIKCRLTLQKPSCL

- CL/F [1]: 118 mL/min/kg
- half-life at 20 µM [5]: 15.4 min
- AUClast [6]: 2443.9 ng·h/g
- Vz [8]: 143.3 L/kg
- Cmax [10]: 176 ng/mL
- AUC(0-t) at 48 h [14]: 3230 ng·h/mL
- IC50 (A549): 18.2 µM
- solubility [22]: 3.26 µg/mL (≈ 8.01 µM)
- IC50 [23]: 38.5 µM
- AUC [29]: 2636 ng·h/g
- half-life at 20 µM [31]: 64.8 min
- IC50 (PC-3 [33]): 4.8 µM
SMILES: O=C(CCl)NC1CCN(c2cnc(-c3ccccc3)c(-c3ccccc3)n2)CC1
- Activity (MGC-803 [2]): 14.35%
- Activity (MGC-803 [3]): 6.57%
- Activity (MGC-803 [4]): Active
- viability at 2.5 µM (MGC-803 [7]): 89.6%
- Activity (PC-3 [9]): 32.51%
- Activity (PC-3 [11]): Active
- Activity (MGC-803 [12]): Dose-Dependent Effect
- Activity (PC-3 [13]): 13.2%
- Activity (MGC-803 [15]): 39.31%
- Activity (MGC-803 [16]): 17.72%
- Activity [17]: Non-Toxic
- Activity (PC-3 [18]): 15.19%
- Activity (MGC-803 [19]): 12.3%
- Activity (MGC-803 [20]): 46.55%
- Activity (PC-3 [21]): 27.9%
- Activity (MGC-803 [24]): 18.74%
- Activity (PC-3 [25]): 44.65%
- Activity (PC-3 [26]): 16.41%
- Activity (PC-3 [27]): 38.62%
- Activity (PC-3 [28]): 0.33%
- TGI (MGC-803 [30]): Active
- Activity (PC-3 [32]): 46.91%

From ChEMBL document CHEMBL5338791, “Discovery of Novel 1,3-Diphenylpyrazine Derivatives as Potent S-Phase Kinase-Associated Protein 2 (Skp2) Inhibitors for the Treatment of Cancer” (J Med Chem, 2023)
